Test results reported in US10570122B2, “Compounds with anti-tumoral activity” (AB Science, priority 2015, dated 2020).

How the values were obtained:
HEPG2 = experiment: CellTiter-Blue cell-based survival/proliferation assay, HEPG2; details: Homo sapiens; HEPG2 liver tumor cell line, 48 h
In short: (§1)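 Tenfold compound dilutions (0–10 μM) were added to 1·10^4 cells/well. Plates incubated 48 h at 37 °C. CellTiter-Blue reduction (4 h, 37 °C) was read as fluorescence at 590 nm, background-corrected with a cell-free blank.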

MELWO = experiment: CellTiter-Blue cell-based survival/proliferation assay, MELWO; details: Homo sapiens; MEL_WO melanoma cell line, 48 h
Description: (§2) Cell-Based Proliferation Screening of Compounds
(§3) CellTiter-Blue cell-based survival/proliferation assay (Promega G8080) was performed on tumor cell lines. A total of 1·10^4 cells/well/50 μl were seeded in a 96-wells plate. Treatment was initiated by addition of a 2× drug solution of 1/10 serial dilutions ranging from 0 to 10 μM. Cells were grown for 48 h at 37° C. and then incubated with 10 μl/well of Promega CellTiter-Bleue reagent for 4 h at 37° C. The amount of resorufin dye formed was quantified by its fluorescence emission at 590 nm using a scanning multiwell spectrophotometer (OPTIMA, BMG labtech, France). A blank well without cells was used as a background control for the spectrophotometer.

BT20 = experiment: CellTiter-Blue cell-based survival/proliferation assay, BT20; details: Homo sapiens, BT-20; BT20 breast tumor cell line, 48 h
In short: as §1

REC1 = experiment: CellTiter-Blue cell-based survival/proliferation assay, REC1; details: Homo sapiens, Lymphoma cell line REC1, 48 h, read-out: Anti-tumoral activity (measured IC50) REC1
In short: as §1

HL60 = experiment: CellTiter-Blue cell-based survival/proliferation assay, HL60; details: Homo sapiens, HL-60, Leukemia cell line HL60, 48 h, read-out: Anti-tumoral activity (measured IC50) HL60
In short: as §1

HCT116 = experiment: CellTiter-Blue cell-based survival/proliferation assay, HCT116; details: Homo sapiens, HCT-116; HCT116 colorectal tumor cell line, 48 h
In short: as §1

SW579 = experiment: CellTiter-Blue cell-based survival/proliferation assay, SW579; details: Homo sapiens; SW579 head & neck tumor cell line, 48 h
In short: as §1

MDAMB231 = experiment: CellTiter-Blue cell-based survival/proliferation assay, MDAMB231; details: Homo sapiens, MDA-MB-231; MDAMB231 breast tumor cell line, 48 h
In short: as §1

DU145 = experiment: CellTiter-Blue cell-based survival/proliferation assay, DU145; details: Homo sapiens, DU-145; DU145 prostate tumor cell line, 48 h
In short: as §1

HUT78 = experiment: CellTiter-Blue cell-based survival/proliferation assay, HUT78; details: Homo sapiens, Lymphoma cell line HUT78, 48 h, read-out: Anti-tumoral activity (measured IC50) HUT78
In short: as §1

HGC27 = experiment: CellTiter-Blue cell-based survival/proliferation assay, HGC27; details: Homo sapiens, HGC-27; HGC27 stomach tumor cell line, 48 h
In short: as §1

BXPC3 = experiment: CellTiter-Blue cell-based survival/proliferation assay, BXPC3; details: Homo sapiens, BXPC-3; BXPC3 pancreas tumor cell line, 48 h
In short: as §1

DLD1 = experiment: CellTiter-Blue cell-based survival/proliferation assay, DLD1; details: Homo sapiens, DLD-1; DLD_1 colorectal tumor cell line, 48 h
In short: as §1

ACHN = experiment: CellTiter-Blue cell-based survival/proliferation assay, ACHN; details: Homo sapiens; ACHN kidney tumor cell line, 48 h
In short: as §1

U118 = experiment: CellTiter-Blue cell-based survival/proliferation assay, U118; details: Homo sapiens; U118 glioblastoma cell line, 48 h
Description: as §2, §3

MESSA = experiment: CellTiter-Blue cell-based survival/proliferation assay, MESSA; details: Homo sapiens, MES-SA; MESSA ovary tumor cell line, 48 h
In short: as §1

PLCPRF5 = experiment: CellTiter-Blue cell-based survival/proliferation assay, PLCPRF5; details: Homo sapiens, PLC-PRF-5; PLC_PRF5 liver tumor cell line, 48 h
In short: as §1

AGS = experiment: CellTiter-Blue cell-based survival/proliferation assay, AGS; details: Homo sapiens; AGS stomach tumor cell line, 48 h
In short: as §1

KARPAS299 = experiment: CellTiter-Blue cell-based survival/proliferation assay, KARPAS299; details: Homo sapiens, KARPAS-299, Lymphoma cell line KARPAS299, 48 h, read-out: Anti-tumoral activity (measured IC50) KARPAS299
In short: as §1

H1299 = experiment: CellTiter-Blue cell-based survival/proliferation assay, H1299; details: Homo sapiens, NCI-H1299; H1299 lung tumor cell line, 48 h
In short: as §1

PANC1 = experiment: CellTiter-Blue cell-based survival/proliferation assay, PANC1; details: Homo sapiens, PANC-1; PANC_1 pancreas tumor cell line, 48 h
In short: as §1

HEP2 = experiment: CellTiter-Blue cell-based survival/proliferation assay, HEP2; details: Homo sapiens, HEp-2; HEP2 head & neck tumor cell line, 48 h
In short: as §1

U2OS = experiment: CellTiter-Blue cell-based survival/proliferation assay, U2OS; details: Homo sapiens; U2OS osteosarcoma cell line, 48 h
Description: as §2, §3

[1] = tested on: human kinases (456 kinases); experiment: KINOMEscan in vitro kinase profiling; type: binding
Description: An in vitro kinase profiling was conducted in order to evidence the absence of protein kinase inhibition by the compounds of the invention.
DiscoveRx (Ambit Biosciences) has developed a high-throughput system (KINOMEscan™) for screening of compounds against large numbers of human kinases (456 kinases).
The compounds of the invention were screened at the concentration of 1 μM, and results for primary screen binding interactions were reported as percent control (% Ctrl), where lower numbers indicate stronger hits. DMSO is used as a negative control (100% Ctrl) while a high affinity compound is used as a positive control (0% Ctrl). % Ctrl is calculated as follow:
[formula] Selectivity Score or S-score is a quantitative measure of compound selectivity. It is calculated by dividing the number of kinases that compounds bind to by the total number of distinct kinases tested, excluding mutant variants. S(10)=(number of kinases with % Ctrl<10)/(number of kinases tested), S(1)=(number of kinases with % Ctrl<1)/(number of kinases tested).

OPM2 = experiment: CellTiter-Blue cell-based survival/proliferation assay, OPM2; details: Homo sapiens, OPM-2, Myeloma cell line OPM2, 48 h, read-out: Anti-tumoral activity (measured IC50) OPM2
In short: as §1

CALU6 = experiment: CellTiter-Blue cell-based survival/proliferation assay, CALU6; details: Homo sapiens, Calu-6; CALU6 lung tumor cell line, 48 h
In short: as §1

TOV112D = experiment: CellTiter-Blue cell-based survival/proliferation assay, TOV112D; details: Homo sapiens; TOV112D ovary tumor cell line, 48 h
In short: as §1

CLS354 = experiment: CellTiter-Blue cell-based survival/proliferation assay, CLS354; details: Homo sapiens, CLS-354; CLS354_4 head & neck tumor cell line, 48 h
In short: as §1

U87MG = experiment: CellTiter-Blue cell-based survival/proliferation assay, U87MG; details: Homo sapiens, U-87 MG; U87_MG glioblastoma cell line, 48 h
Description: as §2, §3

A4513 = experiment: CellTiter-Blue cell-based survival/proliferation assay, A4513; details: Homo sapiens; A4513 Ewing cell line, 48 h
Description: as §2, §3

PC3 = experiment: CellTiter-Blue cell-based survival/proliferation assay, PC3; details: Homo sapiens, PC-3; PC3 prostate tumor cell line, 48 h
In short: as §1

A498 = experiment: CellTiter-Blue cell-based survival/proliferation assay, A498; details: Homo sapiens; A498 kidney tumor cell line, 48 h
In short: as §1

A549 = experiment: CellTiter-Blue cell-based survival/proliferation assay, A549; details: Homo sapiens; A549 lung tumor cell line, 48 h
In short: as §1

A375 = experiment: CellTiter-Blue cell-based survival/proliferation assay, A375; details: Homo sapiens, A-375; A375 melanoma cell line, 48 h
Description: as §2, §3

| SMILES | IC50 (HEPG2) [nM] | IC50 (MELWO) [nM] | IC50 (BT20) [nM] | IC50 (REC1) [nM] | IC50 (HL60) [nM] | IC50 (HCT116) [nM] | IC50 (SW579) [nM] | IC50 (MDAMB231) [nM] | IC50 (DU145) [nM] | IC50 (HUT78) [nM] | IC50 (HGC27) [nM] | IC50 (BXPC3) [nM] | IC50 (DLD1) [nM] | IC50 (ACHN) [nM] | IC50 (U118) [nM] | IC50 (MESSA) [nM] | IC50 (PLCPRF5) [nM] | IC50 (AGS) [nM] | IC50 (KARPAS299) [nM] | IC50 (H1299) [nM] | further results |
| --- | --- | --- | --- | --- | --- | --- | --- | --- | --- | --- | --- | --- | --- | --- | --- | --- | --- | --- | --- | --- | --- |
| CCOCc1ccc(C)c(Nc2ncc(-c3ccc(N4CCNC4=O)cc3)o2)c1 [Example 006, 1-{4-[2-(5-Ethoxymethyl-(2-methyl-phenylamino))-oxazol-5-yl]-phenyl}-imidazolidin-2-one] | > 1000 | ≤ 100 | 100 to 500 | ≤ 100 | ≤ 100 | > 1000 | > 1000 | ≤ 100 | > 1000 | ≤ 100 | > 1000 | ≤ 100 | ≤ 100 | ≤ 100 | > 1000 | > 1000 | > 1000 | > 1000 | ≤ 100 | > 1000 | IC50 (PANC1): > 1000 nM; IC50 (HEP2): > 1000 nM; IC50 (U2OS): 100 to 500 nM; Interaction with the 456 kinases tested ([1]; screened at 1 μM): do not efficiently interact; Number of hits/number of kinases, S1 ([1]; tested at 1 μM, S(1): kinases with % Ctrl<1): 0/456; S-score, S1 ([1]; tested at 1 μM, S(1)=(number of kinases with % Ctrl<1)/(number of kinases tested)): 0.000; Number of hits/number of kinases, S10 ([1]; tested at 1 μM, S(10): kinases with % Ctrl<10): 0/456; S-score, S10 ([1]; tested at 1 μM, S(10)=(number of kinases with % Ctrl<10)/(number of kinases tested)): 0.000; Kinase targets, S1 ([1]; tested at 1 μM, kinases with % Ctrl<1): None; IC50 (OPM2): ≤ 100 nM; IC50 (CALU6): > 1000 nM; IC50 (TOV112D): ≤ 100 nM; IC50 (CLS354): ≤ 100 nM; IC50 (U87MG): > 1000 nM; IC50 (A4513): ≤ 100 nM; IC50 (PC3): ≤ 100 nM; IC50 (A498): 100 to 500 nM; IC50 (A549): > 1000 nM; IC50 (A375): ≤ 100 nM |
| Cc1ccc(CO)cc1Nc1nc(-c2ccc(-n3cccn3)cc2)cs1 [Example 016, {4-Methyl-3-[4-(4-pyrazol-1-yl-phenyl)-thiazol-2-ylamino]-phenyl}-methanol] | > 1000 | > 1000 | > 1000 | > 1000 | > 1000 | > 1000 | > 1000 | > 1000 | > 1000 | > 1000 | > 1000 | > 1000 | > 1000 | > 1000 | > 1000 | > 1000 | > 1000 | > 1000 | > 1000 | > 1000 | IC50 (PANC1): > 1000 nM; IC50 (HEP2): > 1000 nM; IC50 (U2OS): > 1000 nM; IC50 (OPM2): > 1000 nM; IC50 (CALU6): > 1000 nM; IC50 (TOV112D): > 1000 nM; IC50 (CLS354): > 1000 nM; IC50 (U87MG): > 1000 nM; IC50 (A4513): > 1000 nM; IC50 (PC3): > 1000 nM; IC50 (A498): > 1000 nM; IC50 (A549): > 1000 nM; IC50 (A375): > 1000 nM |
| COc1ccc(C)c(Nc2ncc(-c3ccc(N4CCNC4=O)cc3)s2)c1 [Example 013, 1-{4-[2-(5-Methoxy-2-methyl-phenylamino)-thiazol-5-yl]-phenyl}-imidazolidin-2-one] | > 1000 | > 1000 | > 1000 | 500 to 1000 | 100 to 500 | > 1000 | > 1000 | > 1000 | > 1000 | 500 to 1000 | > 1000 | > 1000 | > 1000 | > 1000 | > 1000 | > 1000 | > 1000 | > 1000 | 500 to 1000 | > 1000 | IC50 (PANC1): > 1000 nM; IC50 (HEP2): > 1000 nM; IC50 (U2OS): > 1000 nM; IC50 (OPM2): 100 to 500 nM; IC50 (CALU6): > 1000 nM; IC50 (TOV112D): > 1000 nM; IC50 (CLS354): > 1000 nM; IC50 (U87MG): > 1000 nM; IC50 (A4513): 100 to 500 nM; IC50 (PC3): 500 to 1000 nM; IC50 (A498): > 1000 nM; IC50 (A549): > 1000 nM; IC50 (A375): > 1000 nM |
| CCOCc1ccc(C)c(Nc2nc(-c3ccc(-n4cccn4)cc3)cs2)c1 [Example 015, (5-Ethoxymethyl-2-methyl-phenyl)-[4-(4-pyrazol-1-yl-phenyl)-thiazol-2-yl]-amine] | > 1000 | > 1000 | > 1000 | ≤ 100 | ≤ 100 | > 1000 | > 1000 | > 1000 | > 1000 | ≤ 100 | > 1000 | > 1000 | > 1000 | > 1000 | > 1000 | > 1000 | > 1000 | > 1000 | ≤ 100 | > 1000 | IC50 (PANC1): > 1000 nM; IC50 (HEP2): > 1000 nM; IC50 (U2OS): > 1000 nM; IC50 (OPM2): 100 to 500 nM; IC50 (CALU6): > 1000 nM; IC50 (TOV112D): 500 to 1000 nM; IC50 (CLS354): ≤ 100 nM; IC50 (U87MG): > 1000 nM; IC50 (A4513): 100 to 500 nM; IC50 (PC3): ≤ 100 nM; IC50 (A498): 500 to 1000 nM; IC50 (A549): > 1000 nM; IC50 (A375): > 1000 nM |
